Test results reported in patent US8071600B2, “Derivatives of 4-piperazin-1-yl-4-benzo[B]thiophene suitable for the treatment of CNS disorders” (Otsuka Pharmaceutical Co., Ltd., priority 2005, dated 2011).

Legend:
[1] = molecular target: T1, Serotonin 5-HT2A receptor (Rattus norvegicus, UniProt P14842); assay: Serotonin 5-HT2A receptor binding assay ([3H]-Ketanserin); details: Serotonin 5-HT2A receptor binding test, rat frontal cortex membrane, Ki calculated from IC50 by Cheng-Prussoff formula
T1 construct: from tissue; host or cells: Wistar rat brain, frontal cortex membranes
T1 sequence (P14842 whole entry): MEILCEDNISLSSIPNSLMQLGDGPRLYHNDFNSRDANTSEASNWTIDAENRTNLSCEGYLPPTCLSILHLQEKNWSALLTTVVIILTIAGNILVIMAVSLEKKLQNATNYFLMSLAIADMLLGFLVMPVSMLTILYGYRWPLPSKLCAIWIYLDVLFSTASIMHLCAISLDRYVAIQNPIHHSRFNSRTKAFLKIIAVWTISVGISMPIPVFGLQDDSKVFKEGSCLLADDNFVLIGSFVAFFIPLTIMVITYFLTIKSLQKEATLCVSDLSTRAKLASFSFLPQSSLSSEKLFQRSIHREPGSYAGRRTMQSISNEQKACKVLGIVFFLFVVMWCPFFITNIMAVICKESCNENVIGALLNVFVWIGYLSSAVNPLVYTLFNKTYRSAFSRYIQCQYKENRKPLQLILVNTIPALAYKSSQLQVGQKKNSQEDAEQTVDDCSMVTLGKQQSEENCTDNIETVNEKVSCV
Experimental: 2) Serotonin 5-HT2A Receptor Binding Assay
The assay was performed according to the method by Leysen J E et al. (Leysen J E, Niemegeers C J E, Van Nueten J M and Laduron P M. [3H] Ketanserin (R 41 468), a selective 3H-ligand for serotonin 2 receptor binding sites. Mol. Pharmacol., 1982, 21: 301-314).
Wistar male rats were decapitated, the brain was retrieved immediately and frontal cortex was taken out. It was homogenized in 0.25 M sucrose of a volume 10 times of the weight of the tissue using a Teflon glass homogenizer, and centrifuged at 4° C., 1,000×g for 10 minutes. The obtained supernatant was transferred to another centrifuge tube and suspended in 0.25 M sucrose of a volume 5 times of the weight of the tissue and the precipitate was centrifuged in the above-described condition. The obtained supernatant was combined with the supernatant obtained above and adjusted to a volume 40 times of the weight of the tissue with 50 mM Tris-hydrochloric acid buffer (pH 7.4), and centrifuged at 4° C., 35,000×g for 10 minutes. The obtained precipitate was suspended again in the above-described buffer of a volume 40 times of the weight of the tissue and centrifuged in the above-described condition. The obtained precipitate was suspended in the above-described buffer of a volume 20 times of the weight of the tissue and preserved by freezing at −85° C. till it was used for binding assay as a membrane specimen.
The binding assay was performed using 40 μl of the membrane specimen, 20 μl of [^3H]-Ketanserin (final concentration 1 to 3 nM), 20 μl of a test drug and 50 mM Tris-hydrochloric acid buffer (pH 7.4) so that the total amount was 200 μl (final dimethylsulfoxide concentration 1%). The reaction was performed at 37° C. for 20 minutes and terminated by conducting suction filtration with a cell harvester on a glass fiber filter plate.
The filter plate made of glass fiber was washed with 50 mM Tris-hydrochloric acid buffer (pH 7.4), and after dried, a microplate liquid scintillation cocktail was added and the radioactivity was measured with a microplate scintillation counter. Radioactivity in the presence of 10 μM spiperone was assumed as nonspecific binding.
(§1) IC50 value was calculated from concentration-dependent reaction using a non-linear analysis program. Ki value was calculated from IC50 value using Cheng-Prussoff formula.

Dopamine D2 receptor = molecular target: T2, Dopamine D2 receptor (Rattus norvegicus, UniProt P61169); assay: Dopamine D2 receptor binding assay ([3H]-raclopride); details: Dopamine D2 receptor binding test, rat corpus striatum membrane, Ki calculated from IC50 by Cheng-Prussoff formula
T2 construct: from tissue; host or cells: Wistar rat brain, corpus striatum membranes
T2 sequence (P61169 whole entry): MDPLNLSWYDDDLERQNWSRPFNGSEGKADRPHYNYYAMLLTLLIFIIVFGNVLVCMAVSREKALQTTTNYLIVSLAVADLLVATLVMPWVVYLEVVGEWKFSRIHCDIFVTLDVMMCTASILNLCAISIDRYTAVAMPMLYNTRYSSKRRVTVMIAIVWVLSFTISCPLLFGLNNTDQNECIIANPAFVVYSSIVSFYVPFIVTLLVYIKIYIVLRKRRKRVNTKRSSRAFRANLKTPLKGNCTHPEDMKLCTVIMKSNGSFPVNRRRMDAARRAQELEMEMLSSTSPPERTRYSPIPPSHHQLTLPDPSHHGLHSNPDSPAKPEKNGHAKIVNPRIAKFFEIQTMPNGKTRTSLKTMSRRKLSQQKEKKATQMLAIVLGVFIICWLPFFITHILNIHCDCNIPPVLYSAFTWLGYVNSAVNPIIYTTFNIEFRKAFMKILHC
Experimental: 1) Dopamine D2 Receptor Binding Assay
The assay was performed according to the method by Kohler et al. (Kohler C, Hall H, Ogren S O and Gawell L, Specific in vitro and in vivo binding of 3H-raclopride. A potent substituted benzamide drug with high affinity for dopamine D-2 receptors in the rat brain. Biochem. Pharmacol., 1985; 34: 2251-2259).
Wistar male rats were decapitated, the brain was retrieved immediately and corpus striatum was taken out. It was homogenized in 50 mM tris(hydroxymethyl)aminomethane (Tris)-hydrochloric acid buffer (pH 7.4) of a volume 50 times of the weight of the tissue using a homogenizer with a high-speed rotating blade, and centrifuged at 4° C., 48,000×g for 10 minutes. The obtained precipitate was suspended again in the above-described buffer of a volume 50 times of the weight of the tissue and after incubated at 37° C. for 10 minutes, centrifuged in the above-described condition. The obtained precipitate was suspended in 50 mM (Tris)-hydrochloric acid buffer (containing 120 mM NaCl, 5 mM KCl, 2 mM CaCl2, 1 mM MgCl2, pH 7.4) of a volume 25 times of the weight of the tissue and preserved by freezing at −85° C. till it was used for binding assay as a membrane specimen.
The binding assay was performed using 40 μl of the membrane specimen, 20 μl of [^3H]-raclopride (final concentration 1 to 2 nM), 20 μl of a test drug and 50 mM Tris-hydrochloric acid buffer (containing 120 mM NaCl, 5 mM KCl, 2 mM CaCl2, 1 mM MgCl2, pH 7.4) so that the total amount was 200 μl (final dimethylsulfoxide concentration 1%). The reaction was performed at room temperature for 1 hour and terminated by conducting suction filtration with a cell harvester on a glass fiber filter plate. The filter plate made of glass fiber was washed with 50 mM Tris-hydrochloric acid buffer (pH 7.4), and after dried, a microplate liquid scintillation cocktail was added and the radioactivity was measured with a microplate scintillation counter. Radioactivity in the presence of 10 μM (+)-butaclamol hydrochloride was assumed as nonspecific binding.
as §1

[2] = tested on: serotonin (5-HT) uptake by rat brain synaptosome; assay: Serotonin (5-HT) uptake inhibitory activity by rat brain synaptosome; assay type: biochemical; details: test compound 300 nM, tritium labeled 5-HT 8 nM, 10 minutes uptake at 37° C.
Experimental: Measurement of serotonin (5-HT) uptake inhibitory activity of a test compound by rat brain synaptosome
Wistar male rats were decapitated, the brain was retrieved and frontal cortex was dissected out, and it was homogenized in 0.32 M sucrose solution of a weight 20 times of the weight of the tissue using a Potter type homogenizer. The homogenate was centrifuged at 4° C., 1,000×g for 10 minutes, the obtained supernatant was further centrifuged at 4° C., 20,000×g for 20 minutes, and the pellet was suspended in an incubation buffer (20 mM Hepes buffer (pH 7.4) containing 10 mM glucose, 145 mM sodium chloride, 4.5 mM potassium chloride, 1.2 mM magnesium chloride, 1.5 mM calcium chloride), which was used as crude synaptosome fraction.
5-HT uptake reaction was performed in a volume of 200 μl using a 96-well round bottom plate and pargyline (final concentration 10 μM) and sodium ascorbate (final concentration 0.2 mg/ml) were contained in the incubation buffer upon reaction and used.
Incubation buffer (total counting), non-labeled 5-HT (final concentration 10 μM, non-specific counting) and the diluted test compound (final concentration 300 nM) were added to each well. One-tenth quantity of the final volume of the synaptosome fraction was added and after preincubated at 37° C. for 10 minutes, tritium labeled 5-HT solution (final concentration 8 nM) was added and uptake reaction was started at 37° C. The uptake time was 10 minutes and the reaction was terminated by vacuum filtration through a 96-well fiber glass filter paper plate, and after the filter paper was washed with cold normal saline, it was dried enough and Microscint0 (Perkin-Elmer) was added to the filter and remaining radioactivity on the filter was measured.
Serotonin uptake inhibitory activity (%) was calculated from the radioactivity of total counting as 100%, of non-specific counting as 0%, and of counting obtained with test compound. % of inhibition of 5-HT(%)=100−[(Count obtained with test compound−Nonspecific count (0% Uptake))/(Total count (100% Uptake)−Nonspecific count (0% Uptake))]×100 The results are shown in the next Table 314.

| Compound | Ki [1] | Ki (Dopamine D2 receptor) | melting point | Serotonin uptake inhibitory ratio (%) (300 nM) [2] |
| --- | --- | --- | --- | --- |
| CN(C)C(=O)c1csc(OCCCN2CCN(c3cccc4sccc34)CC2)n1 [Example 1113] | 5 nM | 0.7 nM | – | 59.3% |
| CNC(=O)c1cc(OCCCN2CCN(c3cccc4sccc34)CC2)n(C)n1.Cl [Example 3, N-methyl-5-[3-(4-benzo[b]thiophen-4-yl-piperazin-1-yl)propoxy]-1-methyl-1H-pyrazole-3-carboxamide hydrochloride] | 6 nM | 1.5 nM | 228 to 232.5 °C (dec.) | – |
| CNC(=O)c1csc(OCCCN2CCN(c3cccc4sccc34)CC2)n1.Cl [Example 6, N-methyl-2-[3-(4-benzo[b]thiophen-4-yl-piperazin-1-yl)propoxy]thiazole-4-carboxamide hydrochloride] | 3.3 nM | 0.7 nM | 199.5 to 202.5 °C | – |
| CNC(=O)c1ccc(OCCCCN2CCN(c3cccc4sccc34)CC2)cc1 [Example 170] | 3.3 nM | 1 nM | 154 to 156 °C | – |
| COc1cc(N2CCOC2=O)cc(CO)c1OCCCN1CCN(c2cccc3sccc23)CC1 [Example 1071] | 1.3 nM | 0.1 nM | – | 94.4% |
| CC(=O)Nc1cc(OCCCN2CCN(c3cccc4sccc34)CC2)n(C)n1 [Example 1106] | 7.1 nM | 1 nM | – | 69.9% |
| COc1cc(N2CCCC2)cc(C)c1OCCCN1CCN(c2cccc3sccc23)CC1 [Example 1076] | 12.4 nM | 1.2 nM | – | 87.8% |
| COC(=O)N1CCN(c2cc(C=O)c(OCCCN3CCN(c4cccc5sccc45)CC3)c(OC)c2)CC1 [Example 1086] | 5.8 nM | 1 nM | – | 98.6% |
| CNC(=O)c1cnc(OCCCN2CCN(c3cccc4sccc34)CC2)cn1 [Example 61] | 4.9 nM | 5 nM | 116.5 to 118 °C | – |
| COC(=O)N1CCN(c2cc(C)c(OCCCN3CCN(c4cccc5sccc45)CC3)c(OC)c2)C(=O)C1 [Example 1080] | 3.4 nM | 0.6 nM | – | 95.6% |
| NS(=O)(=O)c1ccc(OCCCN2CCN(c3cccc4sccc34)CC2)cc1 [Example 394] | 4.7 nM | 3.8 nM | 199 to 203 °C | – |
| COc1cc(C(=O)NCC(OC)OC)cc(C)c1OCCCN1CCN(c2cccc3sccc23)CC1 [Example 802] | 1.4 nM | 0.6 nM | – | 96.6% |
| NC(=O)Cc1ccc(OCCCN2CCN(c3cccc4sccc34)CC2)cc1 [Example 340] | 4.8 nM | 1.9 nM | 149.5 to 150.5 °C | – |
| COc1cc(NC(=O)CN)cc(C)c1OCCCN1CCN(c2cccc3sccc23)CC1 [Example 1060] | 1.2 nM | 0.1 nM | – | 97.5% |
| NC(=O)c1cc(OCCCN2CCN(c3cccc4sccc34)CC2)ccn1 [Example 48] | 3.8 nM | 2.3 nM | 150 to 150.5 °C | – |

Further compounds by falling Ki [1], results first:

| Ki [1] | Ki (Dopamine D2 receptor) | melting point | Compound | Serotonin uptake inhibitory ratio (%) (300 nM) [2] |
| --- | --- | --- | --- | --- |
| 2.7 nM | 1.1 nM | 124 to 125.5 °C | CNC(=O)c1ccc(OCCCN2CCN(c3cccc4sccc34)CC2)c(N)c1 [Example 232] | – |
| 2.6 nM | 0.9 nM | 150 to 151.5 °C | NC(=O)c1ccc(OCCCCN2CCN(c3cccc4sccc34)CC2)cc1 [Example 169] | – |
| 2.4 nM | 0.3 nM | 230 to 234 °C (dec.) | COc1cc(N(C)C(C)=O)cc(C)c1OCCCN1CCN(c2cccc3sccc23)CC1.Cl [Example 14, N-{4-[3-(4-benzo[b]thiophen-4-yl-piperazin-1-yl)propoxy]-3-methoxy-5-methylphenyl}-N-methylacetamide hydrochloride] | – |
| 2 nM | 1.3 nM | 156.5 to 158 °C | CNC(=O)c1ccc(OCCCN2CCN(c3cccc4sccc34)CC2)c(C)c1 [Example 186] | – |
| 2 nM | 2.4 nM | 213.1 to 218.5 °C | O=c1[nH]cnc2ccc(OCCCN3CCN(c4cccc5sccc45)CC3)cc12 [Example 94] | – |
| 1 nM | 1.5 nM | 132.5 to 133.5 °C | CNC(=O)c1ccc(OCCCN2CCN(c3cccc4sccc34)CC2)nc1 [Example 27] | – |
| 0.7 nM | 0.4 nM | 152.5 to 154.5 °C | CNC(=O)c1cc(C)c(OCCCN2CCN(c3cccc4sccc34)CC2)c(C)c1 [Example 241] | – |
| 0.7 nM | 1.5 nM | 112.5 to 113.5 °C | CCNC(=O)Cc1ccc(OCCCN2CCN(c3cccc4sccc34)CC2)cc1 [Example 323] | – |
| 0.6 nM | 1.2 nM | 162 to 163.5 °C | COc1cc(C(N)=O)ccc1OCCCN1CCN(c2cccc3sccc23)CC1 [Example 190] | – |
| 0.6 nM | 1.2 nM | 156.5 to 159 °C | NC(=O)c1ccc(F)c(OCCCN2CCN(c3cccc4sccc34)CC2)c1 [Example 271] | – |
| 0.5 nM | 0.2 nM | 147.5 to 148 °C | COc1cc(C(N)=O)cc(OC)c1OCCCN1CCN(c2cccc3sccc23)CC1 [Example 243] | – |
| 0.4 nM | 0.2 nM | 101 to 103 °C | COc1cc(CN(C)C)ccc1OCCCN1CCN(c2cccc3sccc23)CC1 [Example 301] | – |
| 0.3 nM | 0.3 nM | 141.5 to 142.5 °C | CNC(=O)c1cc(C)c(OCCCN2CCN(c3cccc4sccc34)CC2)c(OC)c1 [Example 252] | – |
